# Test results from patent US20240158446A1, “CYCLIC COMPOUND HAVING SELECTIVE INHIBITORY ACTION ON KRAS OVER HRAS AND NRAS” (CHUGAI SEIYAKU KABUSHIKI KAISHA, priority 2021, published 2024).
# Where a SMILES comes first, the peptide text is derived from it. Bridges are numbered along the chain shown (N, C = ends). [ ]: non-standard residue; d: D form. The star is where a group is joined. hPhe(3-Cl-4-CF3) = N[C@@H](CCc1ccc(C(F)(F)F)c(Cl)c1)C(=O)O; NPrPhe(4-CF3) = CCCN[C@@H](Cc1ccc(C(F)(F)F)cc1)C(=O)O; NMeGly(cPent) = CN[C@H](C(=O)O)C1CCCC1; NMeD = CN[C@@H](CC(=O)O)C(=O)O; NMeL = CN[C@@H](CC(C)C)C(=O)O; Morpholide = C1CN(*)CCO1; Ac5c = NC1(C(=O)O)CCCC1; Sar = CNCC(=O)O
# Legend:
# [1] = biological target: GDP-bound NRAS wild-type protein (Homo sapiens, UniProt P01111); assay: Binding to NRAS by surface plasmon resonance (SPR), Single Cycle Kinetics; conditions: ratio of KD for GDP-bound NRAS wild-type protein to KD for KRAS, SPR
# [2] = biological target: GDP-bound HRAS wild-type protein (Homo sapiens, UniProt P01112); assay: Binding to HRAS by surface plasmon resonance (SPR), Single Cycle Kinetics; conditions: ratio of KD for GDP-bound HRAS wild-type protein to KD for KRAS, SPR
# [3] = system: human lung cancer strain NCI-H441; assay: cells; conditions: NCI-H441, 96 h, read-out: NCI-H441 IC50 (nM), NCI-H441 cell proliferation, 4 days, CellTiter-Glo;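 further: cell proliferation inhibition after four days measured by CellTiter-Glo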
# GDP-bound NRAS wild-type protein, sequence (P01111 whole entry): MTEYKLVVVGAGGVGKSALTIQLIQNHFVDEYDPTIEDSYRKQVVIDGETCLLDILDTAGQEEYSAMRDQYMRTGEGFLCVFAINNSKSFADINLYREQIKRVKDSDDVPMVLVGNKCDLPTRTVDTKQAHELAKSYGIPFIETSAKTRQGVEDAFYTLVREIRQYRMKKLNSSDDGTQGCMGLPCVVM
# GDP-bound HRAS wild-type protein, sequence (P01112 whole entry): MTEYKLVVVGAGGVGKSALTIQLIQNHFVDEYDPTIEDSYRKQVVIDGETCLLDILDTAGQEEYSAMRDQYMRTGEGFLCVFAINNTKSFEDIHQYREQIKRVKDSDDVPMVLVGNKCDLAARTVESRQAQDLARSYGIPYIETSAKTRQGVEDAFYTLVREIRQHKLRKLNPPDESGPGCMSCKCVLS
Structure (SMILES),NRAS/KRAS (KD ratio) [1],HRAS/KRAS (KD ratio) [2],IC50 [3] [nM]
CCO[C@@H]1C[C@H]2C(=O)NC3(CCC3)C(=O)N(C)[C@@H](C(CC)CC)C(=O)N(C)[C@H](C3CCC3)CC(=O)N(C)[C@@H](CC3CC3)C(=O)N[C@@H]([C@@H](C)CC)C(=O)N(C)CC(=O)N(C)[C@H]3C/C=C\CCN(C3=O)[C@@H](Cc3ccc(C(F)(F)F)cc3)C(=O)N(C)CC(=O)N[C@@H](CCc3cc(F)c(C(F)(F)F)c(F)c3)C(=O)N2C1 [PP1636],A (a compound having 10 or more and less than 20 is denoted as A),A (a compound having 10 or more and less than 20 is denoted as A),95.2
CCCN(C)C(=O)[C@@H]1CC(=O)N(C)[C@@H](CC)C(=O)N[C@@H]([C@@H](C)CC)C(=O)N(C)CC(=O)N(C)[C@H]2C/C=C\CCN(C2=O)[C@@H](Cc2ccc(C(F)(F)F)cc2)C(=O)N(C)CC(=O)N[C@@H](CCc2ccc(C(F)(F)F)c(OC)c2)C(=O)N2C[C@H](OCC)C[C@H]2C(=O)NC2(CC(C)(C)C2)C(=O)N(C)[C@@H](C2CCCC2)C(=O)N1C [PP1654],A (a compound having 10 or more and less than 20 is denoted as A),A (a compound having 10 or more and less than 20 is denoted as A),2.5
CCO[C@@H]1C[C@H]2C(=O)NC3(CCC3)C(=O)N(C)[C@@H](C3CCCC3)C(=O)N(C)[C@H](C(=O)N(C)CC)CC(=O)N(C)[C@@H](CC3CCC3)C(=O)N[C@@H]([C@@H](C)CC)C(=O)N(C)CC(=O)N(C)[C@H]3C/C=C\CCN(C3=O)[C@@H](Cc3ccc(C(F)(F)F)cc3)C(=O)N(C)CC(=O)N[C@@H](CCc3cc(F)c(C(F)(F)F)c(F)c3)C(=O)N2C1 [PP1667],A (a compound having 10 or more and less than 20 is denoted as A),A (a compound having 10 or more and less than 20 is denoted as A),2
CCCC[C@H]1C(=O)N[C@@H]([C@@H](C)CC)C(=O)N(C)CC(=O)N(C)[C@H]2C/C=C\CCN(C2=O)[C@@H](Cc2ccc(C(F)(F)F)cc2)C(=O)N(C)CC(=O)N[C@@H](CCc2cc(F)c(C(F)(F)F)c(F)c2)C(=O)N2C[C@H](F)C[C@H]2C(=O)NC2(CC(C)(C)C2)C(=O)N(C)[C@@H](C2CCCC2)C(=O)N(C)[C@H](C(=O)N(C)C)CC(=O)N1C [PP1693],AA (a compound having 20 or more is denoted as AA),A (a compound having 10 or more and less than 20 is denoted as A),1.1
CCO[C@@H]1C[C@H]2C(=O)NC3(CCC3)C(=O)N(C)[C@@H](C3CCCC3)C(=O)N(C)[C@H](C(=O)N(C)CC)CC(=O)N(C)[C@@H](CC(F)(F)F)C(=O)N[C@@H]([C@@H](C)CC)C(=O)N(C)CC(=O)N(C)[C@H]3C/C=C\CCN(C3=O)[C@@H](Cc3ccc(C(F)(F)F)cc3)C(=O)N(C)CC(=O)N[C@@H](CCc3cc(F)c(C(F)(F)F)c(F)c3)C(=O)N2C1 [PP1701],A (a compound having 10 or more and less than 20 is denoted as A),A (a compound having 10 or more and less than 20 is denoted as A),3.7
CC[C@H](C)[C@@H]1NC(=O)[C@H](CC)N(C)C(=O)C[C@@H](C(=O)N(C)C)N(C)C(=O)[C@H](C2CCCC2)N(C)C(=O)C2(CCC2)N(C)C(=O)[C@@H]2CCCN2C(=O)[C@H](CCc2cc(F)c(C(F)(F)F)c(F)c2)NC(=O)CN(C)C(=O)[C@H](Cc2ccc(C)cc2)N2CC/C=C\C[C@@H](C2=O)N(C)C(=O)CN(C)C1=O [PP1782],A (a compound having 10 or more and less than 20 is denoted as A),B (a compound having 3 or more and less than 10 is denoted as B),6.7
CC[C@H](C)[C@@H]1NC(=O)[C@H](C2CC2)N(C)C(=O)C[C@@H](C(=O)N(C)C)N(C)C(=O)[C@H](C2CCCC2)N(C)C(=O)C2(CCC2)N(C)C(=O)[C@@H]2C[C@@H](C)CN2C(=O)[C@H](CCc2cc(F)c(C(F)(F)F)c(F)c2)NC(=O)CN(C)C(=O)[C@H](Cc2ccc(C)cc2)N2CC/C=C\C[C@@H](C2=O)N(C)C(=O)CN(C)C1=O [PP1788],B (a compound having 3 or more and less than 10 is denoted as B),B (a compound having 3 or more and less than 10 is denoted as B),6.2
CCC[C@H]1C(=O)N[C@@H]([C@@H](C)CC)C(=O)N(C)CC(=O)N(C)[C@H]2C/C=C\CCN(C2=O)[C@@H](Cc2ccc(C)cc2)C(=O)N(C)CC(=O)N[C@@H](CCc2cc(F)c(C(F)(F)F)c(F)c2)C(=O)N2CCC[C@H]2C(=O)N(C)C2(CCC2)C(=O)N(C)[C@@H](C2CCCC2)C(=O)N(C)[C@H](C(=O)N(C)C)CC(=O)N1C [PP1794],A (a compound having 10 or more and less than 20 is denoted as A),B (a compound having 3 or more and less than 10 is denoted as B),8.7
CCO[C@@H]1C[C@H]2C(=O)N(C)C3(CCC3)C(=O)N(C)[C@@H](C3CCCC3)C(=O)N(C)[C@H](C(=O)N(C)C)CC(=O)N(C)[C@@H](CC3CC3)C(=O)N[C@@H]([C@@H](C)CC)C(=O)N(C)CC(=O)N(C)[C@H]3C/C=C\CCN(C3=O)[C@@H](Cc3ccc(C)cc3)C(=O)N(C)CC(=O)N[C@@H](CCc3cc(F)c(C(F)(F)F)c(F)c3)C(=O)N2C1 [PP1795],A (a compound having 10 or more and less than 20 is denoted as A),B (a compound having 3 or more and less than 10 is denoted as B),3
CC[C@H](C)[C@@H]1NC(=O)[C@H](CC2CC2)N(C)C(=O)C[C@@H](C(=O)N(C)C)N(C)C(=O)[C@H](C2CCCC2)N(C)C(=O)C2(CCC2)N(C)C(=O)[C@@H]2CCCN2C(=O)[C@H](CCc2cc(F)c(C(F)(F)F)c(F)c2)NC(=O)CN(C)C(=O)[C@H](Cc2ccc(C)cc2)N2CC/C=C\C[C@@H](C2=O)N(C)C(=O)CN(C)C1=O [PP1796],A (a compound having 10 or more and less than 20 is denoted as A),B (a compound having 3 or more and less than 10 is denoted as B),5.3
CC[C@H](C)[C@@H]1NC(=O)[C@H](CC2CC2)N(C)C(=O)C[C@@H](C(=O)N(C)C)N(C)C(=O)[C@H](C2CCCC2)N(C)C(=O)C2(CCC2)N(C)C(=O)[C@@H]2C[C@@H](C)CN2C(=O)[C@H](CCc2cc(F)c(C(F)(F)F)c(F)c2)NC(=O)CN(C)C(=O)[C@H](Cc2ccc(C)cc2)N2CC/C=C\C[C@@H](C2=O)N(C)C(=O)CN(C)C1=O [PP1800],A (a compound having 10 or more and less than 20 is denoted as A),A (a compound having 10 or more and less than 20 is denoted as A),6.5
CC[C@H](C)[C@@H]1NC(=O)[C@H](CC2CC2)N(C)C(=O)C[C@@H](C(=O)N(C)C)N(C)C(=O)[C@H](C2CCCC2)N(C)C(=O)C2(CCC2)N(C)C(=O)[C@@H]2C[C@@H](C)CN2C(=O)[C@H](CCc2cc(F)c(C(F)(F)F)c(F)c2)NC(=O)CN(C)C(=O)[C@H](Cc2ccc(C)cc2)N2CC/C=C\C[C@@H](C2=O)N(C)C(=O)[C@@H]2CCCN2C1=O [PP1801],A (a compound having 10 or more and less than 20 is denoted as A),B (a compound having 3 or more and less than 10 is denoted as B),13
CC[C@H](C)[C@@H]1NC(=O)[C@H](CC2CCC2)N(C)C(=O)C[C@@H](C(=O)N(C)C)N(C)C(=O)[C@H](C2CCCC2)N(C)C(=O)C2(CCC2)N(C)C(=O)[C@@H]2C[C@@H](C)CN2C(=O)[C@H](CCc2cc(F)c(C(F)(F)F)c(F)c2)NC(=O)CN(C)C(=O)[C@H](Cc2ccc(C)cc2)N2CC/C=C\C[C@@H](C2=O)N(C)C(=O)CN(C)C1=O [PP1803],A (a compound having 10 or more and less than 20 is denoted as A),B (a compound having 3 or more and less than 10 is denoted as B),7.6
CC[C@H](C)[C@@H]1NC(=O)[C@H](CC2CC2)N(C)C(=O)C[C@@H](C(=O)N(C)CC)N(C)C(=O)[C@H](C2CCCC2)N(C)C(=O)C2(CCC2)NC(=O)[C@@H]2C[C@H](C)CN2C(=O)[C@H](CCc2ccc(C(F)(F)F)c(OC)c2)NC(=O)CN(C)C(=O)[C@H](Cc2ccc(C)cc2)N2CC/C=C\C[C@@H](C2=O)N(C)C(=O)CN(C)C1=O [PP1897],,,22.6
CCCN1C(=O)CN(C)C(=O)CN(C)C(=O)[C@H]([C@@H](C)CC)NC(=O)[C@H](CC(C)C)N(C)C(=O)C[C@@H](C(=O)N2CCOCC2)N(C)C(=O)[C@H](C2CCCC2)N(C)C(=O)C2(CCCC2)NC(=O)[C@H](C)NC(=O)[C@H](CCc2ccc(C(F)(F)F)c(Cl)c2)NC(=O)CN(C)C(=O)[C@@H]1Cc1ccc(C(F)(F)F)cc1 [PP1914] ([NMeL]I[Sar][Sar][NPrPhe(4-CF3)][Sar][hPhe(3-Cl-4-CF3)]A[Ac5c][NMeGly(cPent)][NMeD]-Morpholide; lactam N-11),,,39.7
CCCN(C)C(=O)[C@@H]1CC(=O)N(C)[C@@H](COCC)C(=O)N[C@@H]([C@@H](C)CC)C(=O)N(C)CC(=O)N(C)[C@H]2C/C=C\CCN(C2=O)[C@@H](Cc2ccc(C(F)(F)F)cc2)C(=O)N(C)CC(=O)N[C@@H](CCc2cc(F)c(C(F)(F)F)c(F)c2)C(=O)N2C[C@@H](C)C[C@H]2C(=O)NC2(CCC2)C(=O)N(C)[C@@H](C2CCCC2)C(=O)N1C [PP2002],,,15.7
CCO[C@@H]1C[C@H]2C(=O)NC3(CCC3)C(=O)N(C)[C@@H](C3CCCC3)C(=O)N(C)[C@H](C(=O)N(C)CC)CC(=O)N(C)[C@@H](C(C)C)C(=O)N[C@@H]([C@@H](C)CC)C(=O)N(C)CC(=O)N(C)[C@H]3C/C=C\CCN(C3=O)[C@@H](Cc3ccc(C(F)(F)F)cc3)C(=O)N(C)CC(=O)N[C@@H](CCc3ccc(C(F)(F)F)c(OC)c3)C(=O)N2C1 [PP2019],,,4.5
CCCN(C)C(=O)[C@@H]1CC(=O)N(C)[C@@H](CCOC)C(=O)N[C@@H]([C@@H](C)CC)C(=O)N(C)CC(=O)N(C)[C@H]2C/C=C\CCN(C2=O)[C@@H](Cc2ccc(C(F)(F)F)cc2)C(=O)N(C)CC(=O)N[C@@H](CCc2cc(F)c(C(F)(F)F)c(F)c2)C(=O)N2C[C@H](OCC)C[C@H]2C(=O)NC2(CC(C)(C)C2)C(=O)N(C)[C@@H](C2CCCC2)C(=O)N1C [PP2033],,,11.8
